Data set [1] addresses T1, AXL kinase domain recombinant protein (Homo sapiens, UniProt P30530).
T1 construct: the AXL kinase domain recombinant protein (eurofins, 14-512); purchased eurofins 14-512
T1 sequence (P30530 536-807 limits assumed): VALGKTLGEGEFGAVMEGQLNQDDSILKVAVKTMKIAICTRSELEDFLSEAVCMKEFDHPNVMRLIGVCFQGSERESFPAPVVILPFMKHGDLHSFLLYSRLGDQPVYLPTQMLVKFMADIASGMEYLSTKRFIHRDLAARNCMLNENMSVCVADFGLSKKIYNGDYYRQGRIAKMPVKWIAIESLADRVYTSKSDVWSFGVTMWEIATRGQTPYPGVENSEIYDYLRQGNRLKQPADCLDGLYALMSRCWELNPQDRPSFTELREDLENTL
Description: AXL kinase inhibition, ELISA. The format is biochemical. Particulars: ATP 5 μM. Here is the method: Detection of the activity of kinase: Enzyme-linked immunosorbent assay (ELISA) technology was used to detect the inhibitory activities of the compounds against the kinase. […] After the liquid in the well was discarded, the plate was washed three times with T-PBS (PBS containing 0.1% Tween-20), 200 μL T-PBS per well, 5 minutes for each time. The enzyme label plate was dried in an oven at 37° C. for 1-2 hours. To each well was added 50 μL of ATP solution diluted with reaction buffer (50 mM HEPES, pH 7.4, 50 mM MgCl2, 0.5 mM MnCl2, 0.2 mM Na3VO4, 1 mM DTT) with a final concentration of 5 μM. […] Two wells with no enzyme for control are required for each experiment. The plate was incubated on a shaker (100 rpm) at 37° C. and reacted for 1 hour. The plate was washed three times with T-PBS. 100 μ/well of primary antibody PY99 dilution was added and the plate was reacted in a shaker at 37° C. for 0.5 hour. The plate was washed three times with T-PBS. 100 μ/well of secondary antibody horseradish peroxidase-labeled goat anti-mouse IgG dilution was added and the plate was reacted in a shaker at 37° C. for 0.5 hour. The plate was washed three times with T-PBS. 2 mg/ml of OPD color solution was added with 100 μ/well (diluted with 0.1 M citric acid-sodium citrate buffer (pH=5.4) containing 0.03% H2O2), and the plate was reacted at 25° C. in the dark for 1-10 minutes. (Ultrasound is required for the dissolution of OPD, and the color solution needs to be prepared for immediate use). 50 μ/well of 2 M H2SO4 was added to stop the reaction, and the wavelength-adjustable enzyme-labeling instrument SPECTRA MAX 190 was used to read the data at a wavelength of 490 nm.
The inhibition rate of the sample was obtained by the following formula: […]
(§1) The IC50 values were obtained by regression with the four-parameter method using the software attached to the enzyme-labeling instrument.
In general terms: In an ELISA, binding on a coated surface is turned into a signal by an enzyme label.

In data set [2] the test system is Mixed primary human hepatocytes. Description: Metabolism in human hepatocytes, UPLC-UV/Q-TOF MS. Particulars: 180 min. The format is in vitro ADME. Here is the method:
In this example, a UPLC-UV/Q-TOF MS method was used to evaluate the differences in the metabolic processes of TL134 in hepatocytes of five species of human, monkey, canine, rat, and mouse. It provides a reference for the selection of preclinical pharmacokinetics and studies on animal species safety evaluation.
The total volume of each incubation sample was 100 μL, the medium was WME medium (pH 7.4), and the incubation sample included hepatocytes with a cell density of 1.0×10^6 cells/mL and TL134 with a final concentration of 3.0 μM; the negative control sample was incubated with thermal-inactivated mixed hepatocytes (without cell counting) of five species of animals and TL134, and the buffer control sample was incubated with WME medium and TL134. All samples were incubated at 37° C. for 180 min, and then 100 μL of ice-cold acetonitrile was added to stop the reaction. The samples were stored at −70° C. for ready to be tested, and all incubation samples were double samples.
Triple TOF 5600′ quadrupole-time-of-flight tandem mass spectrometer (Q-TOF MS), equipped with electrospray ionization source (ESI source) and CDS automatic calibration system, AB SCIEX Company, USA; Acquity UPLC liquid chromatography system, including binary infusion pump, autosampler, column oven, degasser and TUV ultraviolet detector, Waters Company, USA. […]

For another data set, the system named is MV4-11 cells. Description: MV4-11 cell proliferation, CCK-8. It counts as cell-based. The settings on record: Homo sapiens, 72 h, read-out: IC50 of inhibition of proliferation of MV4-11 cells. The procedure: The inhibitory effects of the compounds on the proliferation of MV4-11 cells were detected by a CCK-8 cell counting kit (Dojindo). The specific steps are as follows: MV4-11 cells in the logarithmic phase were seeded into a 96-well culture plate at a suitable density for 90 μL per well. After overnight cultivation, the compounds at different concentrations were added to act for 72 hr, and a solvent control group was set (negative control). After 72 h of the compounds acting on the cells, the effects of the compounds on cell proliferation were detected using the CCK-8 cell counting kit (Dojindo). 10 μL of CCK-8 reagent was added to each well and the plate was placed in an incubator at 37° C. for 2-4 hours. After that, a full-wavelength microplate enzyme-labeling instrument SpectraMax 190 was used to read with a measurement wavelength of 450 nm.
The inhibition rate (%) of the compound on tumor cell growth was calculated by the following formula:
Inhibition rate (%)=(OD control well−OD administration well)/OD control well×100%
as §1

Each structure is given as a SMILES string.

Turning to `CCc1ccc2c(c1)c(=O)c(C(=O)Nc1ccc(Oc3ncnc4cc(OCCCN5CCOCC5)c(OC)cc34)c(F)c1)c(C)n2C` [GDL5000123, 6-ethyl-N-(3-fluoro-4-((6-methoxy-7-(3-morpholinopropoxy)quinazolin-4-yl)oxy)phenyl)-1,2-dime thyl-4-oxo-1,4-dihydroquinoline-3-carboxamide, reference compound], the IC50 in data set [1] is 1.2 nM.

On to `COc1cc2c(Oc3ccc(NC(=O)c4c(C)n(C)c5ccc(OC(F)(F)F)cc5c4=O)cc3F)ncnc2cc1OCCCN1CCOCC1` [TL-134, N-(3-fluoro-4-((6-methoxy-7-(3-morpholinopropoxy)quinazolin-4-yl)oxy)phenyl)-1,2-dim ethyl-4-oxo-6-(trifluoromethoxy)-1,4-dihydroquinoline-3-carboxamide], for which the “prototype drug metabolized, judging from the UV chromatographic peak areas” value in data set [2] is “approximately 17.8%”. Besides, the IC50 in data set [1] was 1.1 nM; in the data set with MV4-11 cells, less than 0.4 nM.

The record behind these values is patent US20210078972A1, “QUINOLINE OR QUINAZOLINE COMPOUND AND APPLICATION THEREOF” (HAIHE BIOPHARMA CO., LTD., priority 2018, published 2021).
